pIC50: −log10 of the molar value.
tested on: Aβ42 production in rat primary neuronal culture; assay: Quantification of Aβ peptide in culture of neurons from rat fetus brain (Aβ ELISA); assay type: cell-based; details: Primary cortical neuron, 72 h, rat primary cortical neurons (embryonic day 18 Wistar), three days after addition of the compound, Aβx-42 ELISA of medium, read-out: Aβ42 production reducing effect IC50
Protocol: Quantification of Aβ Peptide in Culture of Neurons from Rat Fetus Brain
(1) Rat Primary Neuronal Culture
Primary neuronal cultures were prepared from the cerebral cortex of embryonic day 18 Wistar rats (Charles River Japan, Yokohama, Japan). Specifically, the embryos were aseptically removed from pregnant rats under ether anesthesia. The brain was isolated from the embryo and immersed in an ice-cold L-15 medium (Invitrogen Corp. Cat #11415-064, Carlsbad, Calif., USA, or SIGMA L1518, for example). The cerebral cortex was collected from the isolated brain under a stereoscopic microscope. The cerebral cortex fragments collected were enzymatically treated in an enzyme solution containing 0.25% trypsin (Invitrogen Corp. Cat #15050-065, Carlsbad, Calif., USA) and 0.01% DNase (Sigma D5025, St. Louis, Mo., USA) at 37° C. for 30 minutes to disperse the cells. Here, the enzymatic reaction was stopped by adding inactivated horse serum to the solution. The enzymatically treated solution was centrifuged at 1,500 rpm for five minutes to remove the supernatant. 5 to 10 ml of a medium was added to the resulting cell mass. Neurobasal medium (Invitrogen Corp. Cat #21103-049, Carlsbad, Calif., USA) supplemented with 2% B27 supplement (Invitrogen Corp. Cat #17504-044, Carlsbad, Calif., USA), 25 μM 2-mercaptoethanol (2-ME, WAKO Cat #139-06861, Osaka, Japan), 0.5 mM L-glutamine (Invitrogen Corp. Cat #25030-081, Carlsbad, Calif., USA), and Antibiotics-Antimycotics (Invitrogen Corp. Cat #15240-062, Carlsbad, Calif., USA) was used as the medium (Neurobasal/B27/2-ME). However, the above Neurobasal medium not supplemented with 2-ME (Neurobasal/B27) was used for the assay. The cells were redispersed by mild pipetting of the cell mass to which the medium was added. The cell dispersion was filtered through a 40-μm nylon mesh (Cell Strainer, Cat #35-2340, Becton Dickinson Labware, Franklin Lakes, N.J., USA) to remove the remaining cell mass, and thus a neuronal cell suspension was obtained. The neuronal cell suspension was diluted with the medium and then plated in a volume of 100 μl/well at an initial cell density of 5×10^5 cells/cm^2 in a 96-well polystyrene culture plate pre-coated with poly-L or D-lysine (Falcon Cat #35-3075, Becton Dickinson Labware, Franklin Lakes, N.J., USA coated with poly-L-lysine using the method shown below, or BIOCOAT™ cell environments Poly-D-lysine cell ware 96-well plate, Cat #35-6461, Becton Dickinson Labware, Franklin Lakes, N.J., USA). Poly-L-lysine coating was carried out as follows. 100 μg/ml of a poly-L-lysine (SIGMA P2636, St. Louis, Mo., USA) solution was aseptically prepared with a 0.15 M borate buffer (pH 8.5). 100 μl/well of the solution was added to the 96-well polystyrene culture plate and incubated at room temperature for one or more hours or at 4° C. overnight or longer. The coated 96-well polystyrene culture plate was washed with sterile water four or more times, and then dried or rinsed with, for example, sterile PBS or medium, and used for cell plating. The plated cells were cultured in the culture plate at 37° C. in 5% CO2-95% air for one day. Then, the total amount of the medium was replaced with a fresh Neurobasal™/B27/2-ME medium, and then the cells were cultured for further three days.
The drug was added to the culture plate on Day 4 of culture as follows. The total amount of the medium was removed from the wells, and 180 μl/well of Neurobasal medium not containing 2-ME and containing 2% B-27 (Neurobasal/B27) was added thereto. A solution of the test compound in dimethyl sulfoxide (hereinafter abbreviated as DMSO) was diluted with Neurobasal/B27 at 10-fold of the final concentration. 20 μl/well of the dilution was added to and sufficiently mixed with the medium. The final DMSO concentration was 1% or less. Only DMSO was added to the control group.
The cells were cultured for three days after addition of the compound, and the total amount of the medium was collected. […]

**Q.** How did the pIC50 turn out when `COc1nc(/C=C/c2nc3n(n2)CCC[C@@H]3c2ccccc2C)ccc1-n1cnc(C)c1` (single isomer, unassigned) [Example 319, (−)-2-{(E)-2-[6-methoxy-5-(4-methyl-1H-imidazol-1-yl)pyridin-2-yl]vinyl}-8-(o-tolyl)-5,6,7,8-tetrahydro[1,2,4]triazolo[1,5-a]pyridine] was run?
**A.** 7.82

**Q.** `COc1nc(/C=C/c2nc3n(n2)CCCC3c2cc(F)cc(F)c2)ccc1-n1cnc(C)c1` (single isomer, unassigned; (-)) [Example 365, (−)-8-(3,5-difluorophenyl)-2-{(E)-2-[6-methoxy-5-(4-methyl-1H-imidazol-1-yl)pyridin-2-yl]vinyl}-5,6,7,8-tetrahydro-[1,2,4]triazolo[1,5-a]pyridine] was tested. Which pIC50 did it give?
**A.** 7.68

**Q.** With `COc1nc(/C=C/c2nc3n(n2)CC[C@H]3c2ccc(F)c(F)c2)ccc1-n1cnc(C)c1` [Example 380, (S)-7-(3,4-difluorophenyl)-2-{(E)-2-[6-methoxy-5-(4-methyl-1H-imidazol-1-yl)pyridin-2-yl]vinyl}-6,7-dihydro-5H-pyrrolo[1,2-b][1,2,4]triazole] as the compound, how does the pIC50 read?
**A.** 7.54

**Q.** With `COc1nc(/C=C/c2nc3n(n2)CCC3c2cc(F)cc(F)c2)ccc1-n1cnc(C)c1` (single isomer, unassigned; (-)) [Example 384, (−)-7-(3,5-difluorophenyl)-2-{(E)-2-[6-methoxy-5-(4-methyl-1H-imidazol-1-yl)pyridin-2-yl]vinyl}-6,7-dihydro-5H-pyrrolo[1,2-b][1,2,4]triazole] as the compound, how does the pIC50 read?
**A.** 7.44

**Q.** `COc1nc(/C=C/c2nc3n(n2)CCOC3c2ccc(Cl)cc2)ccc1-n1cnc(C)c1` (single isomer, unassigned; (-)) [Example 262, (−)-8-(4-chlorophenyl)-2-{(E)-2-[6-methoxy-5-(4-methyl-1H-imidazol-1-yl)pyridin-2-yl]vinyl}-5,6-dihydro-8H-[1,2,4]triazolo[5,1-c][1,4]oxazine] was tested. Which pIC50 did it give?
**A.** 7.13

**Q.** With `COc1cc(/C=C/c2nc3n(n2)CCC[C@H]3c2ccc(F)cc2)cnc1-n1cnc(C)c1` (single isomer, unassigned) [Example 212, (−)-8-(4-fluorophenyl)-2-{(E)-2-[5-methoxy-6-(4-methyl-1H-imidazol-1-yl)pyridin-3-yl]vinyl}-5,6,7,8-tetrahydro-[1,2,4]triazolo[1,5-a]pyridine] as the compound, how does the pIC50 read?
**A.** 7.00

**Q.** How did the pIC50 turn out when `COc1nc(/C=C/c2nc3n(n2)CCC[C@@H]3c2cccc(F)c2C)ccc1-n1cnc(C)c1` (single isomer, unassigned) [Example 333, (−)-8-(3-fluoro-2-methylphenyl)-2-{(E)-2-[6-methoxy-5-(4-methyl-1H-imidazol-1-yl)pyridin-2-yl]vinyl}-5,6,7,8-tetrahydro-[1,2,4]triazolo[1,5-a]pyridine] was run?
**A.** 8.00

**Q.** `COc1nc(/C=C/c2nc3n(n2)CCC[C@H]3c2ccc(F)cc2)ccc1-n1cnc(C)c1` (single isomer, unassigned) [Example 173, (−)-8-(4-fluorophenyl)-2-{(E)-2-[6-methoxy-5-(4-methyl-1H-imidazol-1-yl)pyridin-2-yl]vinyl}-5,6,7,8-tetrahydro-[1,2,4]triazolo[1,5-a]pyridine] was tested. Which pIC50 did it give?
**A.** 7.43

**Q.** With `COc1cc(/C=C/c2nc3n(n2)CCC[C@H]3c2ccc(F)c(F)c2)cnc1-n1cnc(C)c1` (single isomer, unassigned) [Example 218, (−)-8-(3,4-difluorophenyl)-2-{(E)-2-[5-methoxy-6-(4-methyl-1H-imidazol-1-yl)pyridin-3-yl]vinyl}-5,6,7,8-tetrahydro-[1,2,4]triazolo[1,5-a]pyridine] as the compound, how does the pIC50 read?
**A.** 7.16

**Q.** With `COc1nc(/C=C/c2nc3n(n2)CCCC3c2cc(F)c(F)c(F)c2)ccc1-n1cnc(C)c1` (single isomer, unassigned) [Example 169, (−)-2-{(E)-2-[6-methoxy-5-(4-methyl-1H-imidazol-1-yl)pyridin-2-yl]vinyl}-8-(3,4,5-trifluorophenyl)-5,6,7,8-tetrahydro-[1,2,4]triazolo[1,5-a]pyridine] as the compound, how does the pIC50 read?
**A.** 7.66

**Q.** How did the pIC50 turn out when `Cc1cn(-c2ccc(/C=C/c3nc4n(n3)CCC[C@@H]4c3ccccc3C(F)(F)F)nc2OCC(F)F)cn1` (single isomer, unassigned) [Example 354, (−)-2-{(E)-2-[5-(4-methyl-1H-imidazol-1-yl)-6-(2,2-difluoroethoxy)pyridin-2-yl]vinyl}-8-(2-trifluoromethylphenyl)-5,6,7,8-tetrahydro-[1,2,4]triazolo[1,5-a]pyridine] was run?
**A.** 7.43

**Q.** With `COc1nc(/C=C/c2nc3n(n2)CCCC3c2cccc3ccccc23)ccc1-n1cnc(C)c1` (single isomer, unassigned) [Example 199, (+)-2-{(E)-2-[6-methoxy-5-(4-methyl-1H-imidazol-1-yl)pyridin-2-yl]vinyl}-8-(naphthalen-1-yl)-5,6,7,8-tetrahydro-[1,2,4]triazolo[1,5-a]pyridine] as the compound, how does the pIC50 read?
**A.** 7.64

**Q.** With `CCCCC(O)c1ccc(C2CCCn3nc(/C=C/c4ccc(-n5cnc(C)c5)c(OC)c4)nc32)cc1` (stereo not drawn) [Example 19, 1-{4-{2-{(E)-2-[3-methoxy-4-(4-methyl-1H-imidazol-1-yl)phenyl]vinyl}-5,6,7,8-tetrahydro[1,2,4]triazolo[1,5-a]pyridin-8-yl}phenyl}pentan-1-ol] as the compound, how does the pIC50 read?
**A.** 7.37

**Q.** `COc1cc(/C=C/c2nc3n(n2)CC[C@H]3c2ccccc2C(F)(F)F)ccc1-n1cnc(C)c1` (single isomer, unassigned) [Example 317, (−)-2-{(E)-2-[3-methoxy-4-(4-methyl-1H-imidazol-1-yl)phenyl]vinyl}-7-(2-trifluoromethylphenyl)-6,7-dihydro-5H-pyrrolo[1,2-b][1,2,4]triazole] was tested. Which pIC50 did it give?
**A.** 7.60

**Q.** With `COc1cc(/C=C(\F)c2nc3n(n2)CCCC3(O)c2cc(F)c(F)c(F)c2)ccc1-n1cnc(C)c1` (single isomer, unassigned; (-)) [Example 94, (−)-2-{(Z)-1-fluoro-2-[3-methoxy-4-(4-methyl-1H-imidazol-1-yl)phenyl]vinyl}-8-(3,4,5-trifluorophenyl)-5,6,7,8-tetrahydro[1,2,4]triazolo[1,5-a]pyridin-8-ol] as the compound, how does the pIC50 read?
**A.** 7.28

**Q.** With `COc1nc(/C=C/c2nc3n(n2)CC[C@@H](C)N3c2ccc(F)cc2F)ccc1-n1cnc(C)c1` [Example 371, (R)-4-(2,4-difluorophenyl)-2-{(E)-2-[6-methoxy-5-(4-methyl-1H-imidazol-1-yl)pyridin-2-yl]vinyl}-5-methyl-4,5,6,7-tetrahydro-[1,2,4]triazolo[1,5-a]pyrimidine] as the compound, how does the pIC50 read?
**A.** 7.57

**Q.** `COc1nc(/C=C/c2nc3n(n2)CCCC3c2cccc(F)c2)ccc1-n1cnc(C)c1` (single isomer, unassigned) [Example 189, (−)-8-(3-fluorophenyl)-2-{(E)-2-[6-methoxy-5-(4-methyl-1H-imidazol-1-yl)pyridin-2-yl]vinyl}-5,6,7,8-tetrahydro[1,2,4]triazolo[1,5-a]pyridine] was tested. Which pIC50 did it give?
**A.** 7.37

**Q.** How did the pIC50 turn out when `COc1nc(/C=C/c2nc3n(n2)CCCC3c2cc(F)ccc2C(F)(F)F)ccc1-n1cnc(C)c1` (single isomer, unassigned) [Example 329, (−)-8-(5-fluoro-2-trifluoromethylphenyl)-2-{(E)-2-[6-methoxy-5-(4-methyl-1H-imidazol-1-yl)pyridin-2-yl]vinyl}-5,6,7,8-tetrahydro-[1,2,4]triazolo[1,5-a]pyridine] was run?
**A.** 7.77

Reference: patent US9453000B2, “Polycyclic compound” (EISAI R&D MANAGEMENT CO., LTD., priority 2007, dated 2016)
